Assay results: a melting point compilation (Tetko et al.; mined from patent text by program, amines drawn as free bases though some values may be those of a salt)

SMILES | melting point
O=C1C(=Cn2ccnc2)CSc2ccccc21 | 139 to 140 °C
CCS(=O)(=O)c1ccc(C(=O)O)c(Cl)c1CBr | 103 °C
CC(C)(C)c1nc2cc(N3CCSCC3)c([N+](=O)[O-])cc2s1 | 117 to 120 °C
OC(CCCn1ccnc1)c1ccc(Cl)cc1Cl (configuration not stated) | 91.5 to 94 °C
Cc1c(Br)c(=O)n(C2CCCC2)c2nc(Nc3ccc(N4CCNCC4)nc3)ncc12 | 290 °C
CCCOc1ccc(S(=O)(=O)NC)cc1C1=NC(=O)C2=NC=NC2=N1 | 245 to 246 °C
C=CCOC(=O)NCc1ccc(C(=O)O)cc1 | 175 to 177 °C
O=C1Nc2cc(Cl)cc(Cl)c2C1c1cc(Cl)ccc1O (configuration not stated) | 238 to 240 °C
CC(C)(C)OC(=O)NNC1C2CC3CC(C2)CC1C3 (configuration not stated) | 90 to 92 °C
CCOc1nc(=O)n(C(=O)NC(Cl)=C(Cl)Cl)s1 | 123 °C
C=CCNC(=O)N1CC(OCc2ccc(Cl)c(Cl)c2)C1 | 88 to 89 °C
CCOc1c(C)ccc2c1c1cc(Br)ccc1n2C(=O)OC(C)(C)C | 137 °C
O=c1c2ccccc2nnn1CCO | 114 °C
CC(=O)c1ccc2c(c1)[C@@H](O)[C@H](Br)C(C)(C)O2 (relative stereo) | 84 to 86 °C
COc1ccc(CN2C(=O)C(O)(c3ccncc3Cl)c3cc(Cl)ccc32)c(OC)c1 (configuration not stated) | 215 °C
COC(=O)C(O)C(O)C1CC1 (configuration not stated) | 54 to 57 °C
CCC(=O)OC1=CC(=O)CC(NC(=O)N(C)C)C1 (configuration not stated) | 69 to 74 °C
CC(=O)Nc1cc(C)c(OC(C)=O)cc1C | 177 °C
COc1ccc2cc(C(=O)CCCCCCC(=O)O)ccc2c1 | 148 to 149 °C
Oc1ccc(-c2nnc(-c3ccc(O)cc3)o2)cc1 | 338 °C

SMILES | melting point
C=CCOc1ccc(C(=O)C#Cc2c[nH]c3ccccc23)c(O)c1 | 228 to 230 °C
COc1ccc(C(=NO)c2ccccc2F)c(O)c1Cl | 184 to 186 °C
CCNC(=NC#N)NCCSCc1csc(NC(=N)N)n1 | 181 to 182 °C
OCCCNc1cc(-n2cccn2)nc(-c2cccs2)n1 | 130 to 131 °C
CCO/C=C/C(=O)Nc1cccc(Br)c1OC | 102 to 104 °C
COC(=O)C(Cl)=NNc1ccc(Cl)cc1 | 149 to 150 °C
COc1ccccc1Nc1ncccc1[N+](=O)[O-] | 151 to 153 °C
C=CCn1ncc(=O)[nH]c1=O | 133 °C
CC(C)(C)NCC(O)COc1ccccc1-c1csnn1 (configuration not stated) | 99 to 100 °C
CC(=O)c1ccc(Oc2ccc([N+](=O)[O-])cc2C#N)cc1 | 135 to 136 °C
CCCc1nc(SC2CCC(CC(=O)O)CC2)c(C(=O)O)n1Cc1cc2c(cc1Cl)OCO2 (configuration not stated) | 166 °C
CCCc1c(C(=O)O)cnc(C(F)(F)F)c1C(=O)O | 236 °C
CC1(C)CC1C(=O)NC(=CCCCSc1ncccc1O)C(=O)O (configuration not stated) | > 70 °C
CC(C)=CCc1c(O)cc(O)cc1-c1cc2ccc(O)cc2o1 | 82 to 83 °C
OCC1OC(n2cnc3c(Nc4ccccc4Cl)ccnc32)C(O)C1O (configuration not stated) | 207 °C
CCOCc1nc2c(N)nc(C)c(C)c2n1Cc1cc(-c2cccnc2)no1 | 189 to 191 °C
O=[N+]([O-])c1ccc(Oc2cc(Cl)ncn2)cc1 | 125 to 127 °C
Cc1cc2c(cc1C)C(=O)C(Nc1ccccc1)=CC2=O | 208 to 210 °C
CCCCCCCNC(=O)N(C)c1cccc(-c2ccc(C=C(OC)C(=O)O)cc2)c1 | 114 °C
CC(=C1SC(=S)NC1=O)c1ccccc1C(=O)O | 193 to 195 °C

SMILES | melting point
Clc1ccc(-n2cc(Br)cn2)cc1 | 75 to 76 °C
CCC(=O)Nc1csc(Br)n1 | 122 to 125 °C
NS(=O)(=O)c1cccc(-c2cc(-c3nc(-c4ccc(F)c(F)c4)cc(C(F)(F)F)n3)ccn2)c1 | 234 °C
N=C1CN(c2ccccc2)C(=N)O1 | 117 to 119 °C
CN(C)C(=O)NC(=CC(=O)Nc1cc(F)c(C#N)cc1F)C(F)(F)F | 138 °C
Cc1cc([N+](=O)[O-])cc(C)c1-c1ccc(-c2c(C)cc([N+](=O)[O-])cc2C)o1 | 156 to 158 °C
CCCCCCCCS(=O)(=O)CCCC(=O)OO | 113 to 115 °C
COCC1CN(c2ccc3ccc(O)cc3c2)C(=O)O1 (configuration not stated) | 155 to 157 °C
CC(Oc1ccc(F)cc1F)c1ccnc2ncnn12 (configuration not stated) | 96 to 97 °C
CC(=O)OC(C)c1cc2c(s1)C(=O)c1c(C(C)OC(C)=O)csc1C2=O (configuration not stated) | 180 to 182 °C
CCSCCCN(C)c1c(S(=O)(=O)C(F)(F)F)c(C#N)nn1-c1c(Cl)cc(C(F)(F)F)cc1Cl | 89 °C
O=C(O)c1cnc(S)n1C(c1ccccc1)c1ccccc1 | 158 °C
CCOC(=O)c1cnn(-c2ccc(C(F)(F)F)cc2[N+](=O)[O-])c1N | 118 to 121 °C
COC(C)(C)C(Cl)=NO | 95 °C
CCCCCCCCCCCCCCCCNc1ccc(COC(C)=O)cc1 | 43 to 45 °C
CC(=O)c1ccc(-c2ccc(O)c(Br)c2)cc1 | 166 to 170 °C
COc1ccc(S(=O)(=O)c2c(Br)cc(CC(=O)O)cc2Br)cc1C1CCCCC1 | 146 to 150 °C
CC(CCCC(O)(C(F)(F)F)C(F)(F)F)C1CCC2C3C=CC4=CC(=O)C=CC4(C)C3CCC12C (configuration not stated) | 166 to 168 °C

Other lines, results leading:

melting point | SMILES
236 to 239 °C | COc1cc(-c2c3c(cc4ccc5c(c24)OCO5)C(=O)NC3)ccc1OCc1ccccc1
109 °C | CC(Sc1ccccc1)C1C=CCC1C(N)=O (configuration not stated)
61 to 67 °C | c1ccc(Cc2ccccc2Cc2ccccc2)cc1
141 to 142 °C | Cc1oc(-c2ccco2)nc1COc1ccc(COc2ncccc2CC#N)cc1
99 to 100 °C | CCOC(=O)C=Cc1ccc(C=Cc2csc3ccccc23)s1
150 to 151 °C | O=C1C(Cl)=C(C2CCCCC2)C(=O)c2ccccc21
133 to 135 °C | CCC(=O)OC(C)c1ccc(-c2ccc(O)cc2)cc1 (single isomer, unassigned; (+))
239 to 241 °C | O=c1[nH]c(-c2ccc(O)cc2)cc2ccccc12
148 to 149 °C | CC1(CNc2ccccc2)SC2C(NC(=O)Cc3ccccc3)C(=O)N2C1C(=O)OCC(Cl)(Cl)Cl (configuration not stated)
142 °C | C[C@H](CC(=O)c1ccc(C#N)cc1)C(=O)N1CCC(OCC(=O)OC(C)(C)C)CC1
184 to 187 °C | CCOC(=O)c1cn2c(cnc3ccccc32)n1
34 to 35 °C | CCOC(=O)/C=C\C=C(c1ccccc1)c1ccccc1
154 to 156 °C | CN(CCOc1ccc(CC(S)C(=O)O)cc1)c1nc2ccccc2o1 (configuration not stated)
230 to 232 °C | CCCCc1nc2ccccc2n1Cc1ccc(-c2ccccc2-c2nnn[nH]2)cc1
204 to 205 °C | CN(C)C1CCN(c2cc3ccccc3c(=O)[nH]2)CC1
146 °C | C=CC[C@H]1C(=O)N(S(=O)(=O)c2cc3ccccc3s2)[C@@H]2CCN(C(=O)OCc3ccccc3)[C@H]21 (relative stereo)
115 to 116 °C | CC(C)(C)COc1cccc(C[C@H](N)[C@H](O)c2cccc(Cl)c2)c1 (racemic)
126 to 127 °C | CC(C)OC(=O)c1nc2ccc(OCCCN3CCC(OC(c4ccccc4)c4ccccc4)CC3)nn2n1
146 to 147 °C | CCNC(=O)c1cc(NS(=O)(=O)c2ccc(OC)cc2)ccc1Oc1cncc(Cl)c1
81 °C | CC(C)OC(=O)C(C)Oc1ccc(COc2ccc(Cl)cc2)cc1 (configuration not stated)
104 to 106 °C | CCCCCCCCNC(=O)N1CCC(c2cc(Cc3ccc(OC)cc3)nc(N)n2)CC1
122 to 125 °C | O=C(CC(c1cc(F)ccc1F)S(=O)(=O)c1ccc(Cl)cc1)N1CCCC1 (configuration not stated)

melting point | SMILES
190 to 193 °C | Cc1ccc(C(=O)Cn2c(-n3ncnc3N)nc3ccccc32)cc1C
126 to 128 °C | c1ccc(OCC2CCN(CCCOc3cccc4[nH]c5ccccc5c34)CC2)cc1
58 to 60 °C | Cc1cccc(C(O)(c2cccc(C)c2)c2cccc(-c3ccc4ccccc4c3)c2)c1
88 to 90 °C | O=C(NC(CC1CCCC1)C(=O)NC1CCCN(S(=O)(=O)c2ccccc2)CC1=O)c1ccco1 (configuration not stated)
130 to 131 °C | COCCO[C@H]1c2ccn3c(C)c(C)nc3c2N[C@@H](c2ccccc2)[C@@H]1O
136 to 137 °C | O=C(NCCO)c1cccc(-c2cccn3cc(Cc4cccc(C(F)(F)F)c4)nc23)c1
124 to 127 °C | COc1ccc(-c2cc(=O)n(Cc3ccc(Cl)cc3)nc2-c2ccc(OC)cc2)cc1
158 °C | COc1ccc(CN=C(Cc2ccccc2)N2CC3C(=O)CCC(c4ccccc4)(c4ccccc4)C3C2)cc1 (configuration not stated)
220 °C | OC(Cn1ccnc1)(c1ccc(F)cc1)c1ccc(-c2ccccc2)cc1 (configuration not stated)
58 to 62 °C | Cn1nnnc1SCC(=O)NC/C=C\COc1cc(CN2CCCCC2)ccn1
158 to 160 °C | CN1C(=O)C(C(=O)Nc2ccc(F)cc2)Sc2ccccc21 (configuration not stated)
98 °C | COc1ccc(N=C(C#Cc2ccccc2)N2CCN(Cc3ccc(F)cc3)CC2)cc1
128 to 130 °C | CCCCOc1ccc(C(=O)Nc2ccc3cc(CN4CCCC4CC(C)C)cnc3c2C)cc1 (configuration not stated)
110 to 115 °C | COC(=O)[C@H](CCC(=O)NCCc1ccc(O)c(OCc2ccccc2)c1)NC(=O)OCc1ccccc1
238 to 241 °C | CC(=O)NC1(c2ccc(Cl)cc2)c2ccc(Cl)cc2-c2ncncc21 (configuration not stated)
178 to 180 °C | COc1ccc(C(=O)Nc2ccccc2)cc1Nc1ccc(F)cc1
> 300 °C | CCCCNc1nc(=O)c2c(C)nn3c2n1CC(C)=C3c1ccccc1
240 to 244 °C | O=C(CN1CCN(c2ccncc2)CC1)c1ccc(CC(O)=S)cc1
231 to 232 °C | CC1(CN2CCN(c3cccccc3=O)CC2)NC(=O)NC1=O (configuration not stated)
64 to 67 °C | c1ccc(OCCSCc2nnc(-c3ccc(OCCCCN4CCOCC4)cc3)o2)cc1
179 to 184 °C | CS(=O)(=O)Nc1ccc(Cl)cc1C(=Cc1ccc2ccccc2c1)C(N)=O
191 to 192 °C | CCCCc1nc2ccccc2n1Cc1ccc(C(=O)O)c(C)c1
